From patent publication US9862690B2, “Treatment of pulmonary and other conditions” (University of Pittsburgh—of the Commonwealth System of …, priority 2013, dated 2018) come the findings set out here.

For series [1], the system named is bronchial epithelial cells, THP cells, and alveolar macrophages. As to the kind of experiment: Cigarette smoke extract exposure of cultured cells. As to conditions: pretreated 1 to 5 μM, then 10% cigarette smoke extract. Type of series: cell-based, humans and mice. The method, then: For further in vitro studies, bronchial epithelial cells, THP cells (obtained from American Type Culture Collection), and alveolar macrophages (isolated from bronchial lavage fluid of humans and mice) were cultured and exposed to 10% cigarette smoke extract (CSE) prepared by smoking two cigarettes into RPMI medium according to the Federal Trade Commission (FTC) protocol. In some experiments cells were pretreated with 1 to 5 μM PB141 before the cigarette smoke extract treatment. Pretreatment with PB141 decreased epithelial cell permeability, inflammatory chemokine and cytokine production, and ROS generation.

Series [2] has as its system BEAS-2B cells. The class given is cell-based. The method, then:
To evaluate cell viability, apoptosis, and cytotoxicity, the Apo Tox-Glo Triplex assay was used according to the manufacturer's instructions (Promega, Madison, Wis.). Briefly, the BEAS-2B cells were plated at 2×10^4 cells/well in 100 μl medium in an opaque walled, clear-bottomed, 96-well plate. After 24 hr culture, they were treated for a further indicated time with different concentrations of PB141 or PB157. At the end of the culture period, 20 μl viability/cytotoxicity reagent was added to each well, mixed by orbital shaking (300 r.p.m. for 30 s) and incubated for 30 min at 37° C. Fluorescence was then measured with excitation at 400 nm and emission at 505 nm to assess cell viability, and 485 nm excitation and 520 nm emission to assess cytotoxicity; both were quantified as relative fluorescence units (RFU). Then, 100 μl Caspase-Glo 3/7 reagent was added to each well, mixed by orbital shaking (300 r.p.m. for 30 s) and incubated for 30 min at room temperature. Luminescence was measured to assess caspase activation as a marker of apoptosis and quantified as relative luminescence units. Results for PB141 and PB157 were similar.

For series [3], the system named is Nrf2. The series is described as follows: Nrf2 DNA-binding activity and nuclear concentration in BEAS-2B cells. The class given is cell-based. The following applies: different concentrations, 24 h. The procedure: BEAS-2B cells were treated with varying concentrations of PB141 for 24 h, after which (A) Nrf2 activity was measured or (C) nuclear Nrf2 concentration was determined by Western blotting. (B) In other experiments cells were pretreated with varying concentrations of PB141 for 1 h, then with LPS (500 ng/ml) for 6 h. Cells were then isolated and activity of NF-κB was measured.
BEAS-2B cells were cultured in Dulbecco's modified Eagle's medium (DMEM) containing 10% heat-inactivated fetal bovine serum, penicillin, and streptomycin (100 IU/ml). Monolayer cultures were treated with different concentrations of PB141 for 24 h. Cells were then isolated and the DNA-binding activity of the antioxidant transcription factor Nrf2 was determined. The nuclear concentration of Nrf2 was also determined by Western blotting. […] In some experiments monolayer cultures were deprived of serum for 24 h, pre-treated with different concentrations of PB141 for 1 h, then exposed to LPS for 6 h. Nuclear proteins were prepared and were used to quantify DNA-binding activity of the p65 subunit of NF-κB.

Series [4] concerns LPS-induced acute lung injury in mice. The series is described as follows: LPS-induced acute lung injury model. As to conditions: 25 mg/kg nebulized 30 min after LPS. Type of series: in vivo. The procedure:
Induction of ALI by intratracheal injection of LPS (50 μg) was followed 30 min later by nebulization of PB141 (25 mg/kg) or vehicle (saline) and delivery to cage air via a micropump nebulizer. After a further 5.5 h, BAL fluid, plasma, and lung samples were obtained. (A) Total cell and (B) neutrophil number in BAL fluid; myeloperoxidase activity in (C) lung tissue and (D) BAL fluid; (E) microscopic examination following staining of BAL fluid; (F) H2O2 production; (G) nitrate concentration, and (H) malonyldialdehyde/protein ratio in lung. Plasma levels of (I) MIP-2, (J) IL-6, (K) TNF-α, and (L) KC. Data are representative of one of two independent experiments with n=5-8 mice per group; *** p<0.001.
Induction of ALI by intratracheal injection of LPS (50 μg) was followed 30 min later by nebulization of PB141 (25 mg/kg) or vehicle (saline) and delivery to cage air via a micropump nebulizer. After a further 5.5 h, BAL fluid and lung samples were obtained. (A) Protein concentration in BAL fluid. (B) Ratio of lung wet:dry weight. (C) Histological examination of the lung following H&E staining. Data are representative of one of two independent experiments with n=5-8 mice per group; *** p<0.001.
Induction of ALI by intratracheal injection of LPS (50 μg) was followed 30 min later by nebulization of PB141 (25 mg/kg) or vehicle (saline) and delivery to cage air via a micropump nebulizer. After another 5.5 h lungs were excised and DNA-binding activity of the transcription factor Nrf2 was determined. Data is representative of one of two independent experiments with n=4-6 mice per group; *** p<0.001.
Acute lung injury was induced by intratracheal injection of endotoxin (lipopolysaccharide; LPS) prepared from Escherichia coli 0111:B6 (Sigma-Aldrich; St. Louis, Mo.) into anesthetized mice. In other experiments, systemic sepsis was induced by intraperitoneal injection of endotoxin. Thirty minutes later PB141 (25 mg/kg) or vehicle (saline) was delivered to mice for 30 minutes via a micropump nebulizer (Buxco Research Systems, Wilmington, N.C.) fitted at the chamber inlet. Extent of lung injury after 5.5 h and systemic sepsis after 12 h were assessed by measuring lung tissue myeloperoxidase activity, polymorphonuclear neutrophil (PMN) count in bronchoalveolar lavage fluid, lung vascular permeability, pulmonary edema, and cytokine generation. Lung histology sections were assessed microscopically for evidence of inflammation and injury following hematoxylin and eosin (H&E) staining.

On to `CC(=O)N[C@@H](CSC(CC(=O)CC(SC[C@H](NC(C)=O)C(=O)O)c1cnccn1)c1cnccn1)C(=O)O` (stereo partly drawn) [PB141], for which, in series [1], the “Inflammatory chemokine and cytokine production” value is listed as “decreased”; the “Phagocytic ability of mouse and human alveolar macrophages” value was “improved”; the ROS generation entry is listed as “decreased”. Moreover, the Cytotoxicity result in series [2] is recorded as “without exhibiting cytotoxicity”. Moreover, the “Apoptosis (caspase 3/7 activation)” value in series [2] (different concentrations, data not shown) was “induced apoptosis”. Further, in series [3], the “DNA-binding activity of Nrf2” value is “increased both nuclear localization and DNA-binding activity of Nrf2 in a concentration-dependent manner”; the “Nuclear localization of Nrf2 (Western blotting)” value is “increased both nuclear localization and DNA-binding activity of Nrf2 in a concentration-dependent manner”. Further, in series [4] (5.5 h), the “Cytokine generation (plasma MIP-2, IL-6, TNF-α, KC)” value is reported as “reduced”; the “Edema (lung wet:dry weight)” value was “reduced”; the “Lung Nrf2 DNA-binding activity after LPS” value was “reverses the LPS-induced decrease”; the Lung myeloperoxidase activity result is reported as “decreased”. Besides, in series [4] (5.5 h), the “Oxidant stress (H2O2, nitrate, malonyldialdehyde)” value is given as “reduced”; the “PMN count in BAL fluid” value was “decreased”; the “PMN infiltration into the alveolar space” value is on record as “effectively prevented”. In addition, the “Lung injury seen histologically” value in series [4] (H&E) is given as “Decreased lung injury”.
